{
  "source": "patent US20050025795A1",
  "about": "“Compounds, Compositions and methods for insect control” (The Procter & Gamble Company, priority 2003, published 2005)",
  "key": {"roaches": {"system": "roaches", "assay_type": "in vivo, cockroaches", "procedure": "An ˜500 mL jar is coated at the top with a thin film of petroleum jelly and covered with a plastic petri dish as a lid. […] The filter paper is bent in half to form a ‘tent’, as shown, so the roaches are not forced to contact the filter paper. The lid is removed, and a compound or composition to be tested is added to the top of the paper, at the bend. The lid is replaced and the insects monitored for activity at 15, 30, 45 minutes, then 1, 2, 4 and 24 hours post exposure.\nThis is done by taking multiple testes and plotting them on a dose-response curve such as the GraphPad® Prism® computer program. This program interpolates to find the midpoint of any sigmoidal dose-response curve.\nThe data in Table 1 can graphed as a sigmoidal dose response, much the same as any other biological data. […] The mid-Point of the dose-response curve is given by the computer and used to compare potencies. […] It is also necessary to understand the range of the testing. While the lower limit is in the 1 to 3 microliter range, the upper limit is about 250 microliters. Adding more material than that to the filter paper will allow the substance to drip onto the glass, where contact with the insects might occur. […] Several compounds are tested in a 2 liter (L) jar rather than the 0.5 L jars which are the primary assay."}, "[1]": {"system": "insects of the blattella species", "assay": "Direct contact spray knockdown", "assay_type": "in vivo", "text": "A formula is created consisting exclusively of ethylene glycol diformate. This diformate is placed in aerosol cans and pressurized with carbon dioxide as propellant. This material, when sprayed on insects of the blattella species, results in knockdown in under 30 seconds. When administered in the vapor phase according to Example 1, in a 500 milliliter jar, 15 microliters of the formula in the vapor phase kills all the insects in one hour.\nRaid (#271) Roach and Ant Killer and Treatment is purchased and repeatedly tested in the assay of Example 1, and in a direct contact test. It did knowndown both the peripleneta species (17.2+/−3.2 seconds) and the blattella species (kill time 16 seconds) when directly sprayed on the insects."}, "[2]": {"conditions": "5 µL, ~500 mL jar, 6 insects in this jar"}},
  "note": "Where a name gives a salt, the structure may show the parent alone. Read-outs that look alike come from different tables or passages of the source. Marks after values point to notes of the source that are not given here.",
  "data": [
    {"compound": "Cc1coc2c1CC[C@@H](C)C2", "note": "[(+)-Menthofuran, (+) menthofuran]", "values": [
      {"measurement": "LD50 (vapor phase) in a 2 L jar", "setting": "roaches; 2 L jar", "value": "15 microliters per 2 L headspace"},
      {"measurement": "Percent Dead Only at 4 hours", "setting": "roaches; [2]", "value": 33, "unit": "%*"},
      {"measurement": "Percent Dead at 24 hours", "setting": "roaches; [2]", "value": 33, "unit": "%*"},
      {"measurement": "Percent Distressed or Dead at 4 hours", "setting": "roaches; [2]", "value": 33, "unit": "%*"},
      {"measurement": "Percent Dead Only at 4 hours", "setting": "roaches; 10 µL (repeat), ~500 mL jar", "value": 40, "unit": "%"},
      {"measurement": "Percent Dead at 24 hours", "setting": "roaches; 10 µL (repeat), ~500 mL jar", "value": 40, "unit": "%"},
      {"measurement": "Percent Distressed or Dead at 4 hours", "setting": "roaches; 10 µL (repeat), ~500 mL jar", "value": 40, "unit": "%"},
      {"measurement": "Percent Dead Only at 4 hours", "setting": "roaches; 10 µL, ~500 mL jar", "value": 100, "unit": "%"},
      {"measurement": "Percent Dead at 24 hours", "setting": "roaches; 10 µL, ~500 mL jar", "value": 80, "unit": "%"},
      {"measurement": "Percent Distressed or Dead at 4 hours", "setting": "roaches; 10 µL, ~500 mL jar", "value": 100, "unit": "%"},
      {"measurement": "Percent Dead Only at 4 hours", "setting": "roaches; 15 µL, ~500 mL jar", "value": 100, "unit": "%"},
      {"measurement": "Percent Dead at 24 hours", "setting": "roaches; 15 µL, ~500 mL jar", "value": 100, "unit": "%"},
      {"measurement": "Percent Distressed or Dead at 4 hours", "setting": "roaches; 15 µL, ~500 mL jar", "value": 100, "unit": "%"},
      {"measurement": "Percent Dead Only at 4 hours", "setting": "roaches; 20 µL, ~500 mL jar", "value": 100, "unit": "%"},
      {"measurement": "Percent Dead at 24 hours", "setting": "roaches; 20 µL, ~500 mL jar", "value": 100, "unit": "%"},
      {"measurement": "Percent Distressed or Dead at 4 hours", "setting": "roaches; 20 µL, ~500 mL jar", "value": 100, "unit": "%"},
      {"measurement": "Percent Dead Only at 4 hours", "setting": "roaches; 33 µL, ~500 mL jar", "value": 100, "unit": "%"},
      {"measurement": "Percent Dead at 24 hours", "setting": "roaches; 33 µL, ~500 mL jar", "value": 100, "unit": "%"},
      {"measurement": "Percent Distressed or Dead at 4 hours", "setting": "roaches; 33 µL, ~500 mL jar", "value": 100, "unit": "%"},
      {"measurement": "LD50 (vapor phase)", "setting": "roaches; ~500 mL jar", "value": "7.2 microliters/500 milliliters headspace"}
    ]},
    {"compound": "C=CCc1ccc(O)c(OC)c1", "note": "[eugenol, reference compound]", "values": [
      {"measurement": "LD50 (vapor phase)", "setting": "roaches; ~500 mL jar", "value": "> 300 milligrams/500 milliliters"}
    ]},
    {"compound": "O=COC1CCCC1", "note": "[compound 2-2, cyclopentyl formate]", "values": [
      {"measurement": "24 hr LD50 (vapor phase)", "setting": "roaches; ~500 mL jar", "value": "17 microliters per 500 milliliters headspace"}
    ]},
    {"compound": "O=COCCOC=O", "note": "[ethylene glycol diformate]", "values": [
      {"measurement": "Insects killed in the vapor phase", "setting": "roaches; 15 microliters of the formula, 500 milliliter jar, one hour", "value": "all"},
      {"measurement": "LD50 (vapor phase)", "setting": "roaches; in a 500 milliliter jar", "value": "approximately 7.5 microliters"},
      {"measurement": "Relative potency within the diformate ester series (in words)", "setting": "roaches; in vivo", "value": "most potent compound of the series"},
      {"measurement": "Knockdown time when sprayed on insects", "setting": "[1]", "value": "under 30 seconds"}
    ]},
    {"compound": "(R) (−) carvone", "values": [
      {"measurement": "Fraction of the roaches that die in 24 hrs", "setting": "roaches; individually tested at 29 milligrams/500 milliliters, 24 hrs", "value": "⅕"}
    ]},
    {"compound": "CC(C)(C)OC=O", "note": "[compound 2-1, tert-butyl formate]", "values": [
      {"measurement": "24 hr LD50 (vapor phase)", "setting": "roaches; ~500 mL jar", "value": "40 microliters per 500 milliliters headspace"}
    ]}
  ]
}
